In ChEMBL document CHEMBL3045898, “Antioxidant phenolic compounds and flavonoids of Mitragyna rotundifolia (Roxb.) Kuntze in vitro” (Med Chem Res, 2010):
In brackets after ≈: the same amount, converted by molar mass.

tested on: not listed separately; assay: Antioxidant activity assessed as inhibition of ABTS radical production after 10 min by spectrophotometric analysis; type: functional

First: Oc1cc(O)c2c(c1)O[C@H](c1ccc(O)c(O)c1)[C@H](O)C2 [(-)-EPICATECHIN]
Second: Oc1cc(O)c2c(c1)O[C@H](c1ccc(O)c(O)c1)[C@@H](O)C2 [CIANIDANOL]
The IC50 of the first is 3.3-fold higher: 1.83 µg/mL (≈ 6.3 µM) for the first, 0.56 µg/mL (≈ 1.93 µM) for the second.

Compared with `Cc1cc(C(C)(C)C)c(O)c(C(C)(C)C)c1` [BUTYLATED HYDROXYTOLUENE], `CCCOC(=O)c1cc(O)c(O)c(O)c1` [PROPYL GALLATE] is 5.1-fold lower in IC50: 4.555 µg/mL (≈ 20.7 µM) for the first, 0.885 µg/mL (≈ 4.17 µM) for the second.

Compared with `O=C(O)c1ccc(O)c(O)c1` [PROTOCATECHUIC ACID], `O=C(O)/C=C/c1ccc(O)c(O)c1` [CAFFEIC ACID] is 1.6-fold lower in IC50: 2.47 µg/mL (≈ 16 µM) for the first, 1.54 µg/mL (≈ 8.55 µM) for the second.

`COc1c(O)cc([C@H]2Oc3cc(O)cc(O)c3C[C@@H]2O)cc1O` [4'-O-METHYL-GALLOCATECHIN] and `O=c1c(O)c(-c2ccc(O)cc2)oc2cc(O)cc(O)c12` [KAEMPFEROL] are within 1.5-fold of each other in IC50: 0.78 µg/mL (≈ 2.44 µM) for the first, 1.03 µg/mL (≈ 3.6 µM) for the second.

tested on: Radical scavenging activity; assay: Antioxidant activity assessed as inhibition of DPPH radical production after 30 min by spectrophotometric analysis; type: functional

`Oc1cc(O)c2c(c1)O[C@H](c1ccc(O)c(O)c1)[C@H](O)C2` [(-)-EPICATECHIN] and `Oc1cc(O)c2c(c1)O[C@H](c1ccc(O)c(O)c1)[C@@H](O)C2` [CIANIDANOL] are within 1.5-fold of each other in IC50: 1.61 µg/mL (≈ 5.55 µM) for the first, 1.4 µg/mL (≈ 4.82 µM) for the second.

First: Cc1cc(C(C)(C)C)c(O)c(C(C)(C)C)c1 [BUTYLATED HYDROXYTOLUENE]
Second: CCCOC(=O)c1cc(O)c(O)c(O)c1 [PROPYL GALLATE]
The IC50 of the first is 20-fold higher: 18.79 µg/mL (≈ 85.3 µM) for the first, 0.94 µg/mL (≈ 4.43 µM) for the second.

`COc1c(O)cc([C@H]2Oc3cc(O)cc(O)c3C[C@@H]2O)cc1O` [4'-O-METHYL-GALLOCATECHIN] and `O=c1c(O)c(-c2ccc(O)cc2)oc2cc(O)cc(O)c12` [KAEMPFEROL] are within 1.5-fold of each other in IC50: 2.57 µg/mL (≈ 8.02 µM) for the first, 2.51 µg/mL (≈ 8.77 µM) for the second.

Work on `O=C(O)/C=C/c1ccc(O)c(O)c1` [CAFFEIC ACID] yielded an IC50 of 1.8 µg/mL (≈ 9.99 µM).

With `O=C(O)c1ccc(O)c(O)c1` [PROTOCATECHUIC ACID] the IC50 was “ND(Insoluble)”.
